Measurements taken from patent publication US8058243B2, “Method for treating a brain cancer with ifenprodil” (HSC Research and Development Limited Partnership, priority 2006, dated 2011).
Where a name gives a salt, the structure may show the parent alone. Read-outs that look alike come from different tables or passages of the source.

Test system: murine neural precursor cells (neurosphere cultures)
Test: HTS of LOPAC library against secondary neurosphere cultures, MTT proliferation assay at 3 μM, day 7 (z score, P value)
Type: cell-based, mouse
[1] = LOPAC library screen, 3 μM, MTT, secondary neurosphere cultures, day 7
[2] = LOPAC primary screen, neurosphere MTT proliferation, 3 μM, day 7
[3] = yes = significantly inhibited neurosphere proliferation (P<0.01) in the primary screen
[4] = yes/no: significantly inhibited neurosphere proliferation (P<0.01) in the primary screen
[5] = yes/no: significantly inhibited neurosphere proliferation (P<0.01) in primary screen
[6] = yes/no: significantly inhibited neurosphere proliferation in primary screen
[7] = primary LOPAC screen, 3 μM, MTT, neurosphere proliferation
[8] = yes/no: significantly inhibited neurosphere proliferation in the primary screen
[9] = LOPAC screen, neurosphere MTT proliferation, 3 μM, day 7
[10] = LOPAC library screen at 3 μM, secondary neurosphere cultures, MTT

With `CCN(CC)C(C)C(=O)N1c2ccccc2Sc2ccccc21.Cl` (stereo not drawn) [10-(alpha-Diethylaminopropionyl)-phenothiazine hydrochloride] the “Z Score” value was −1.545.
With `CN1CCN(CC/C=C2/c3ccccc3Sc3ccc(S(=O)(=O)N(C)C)cc32)CC1` [Thiothixene hydrochloride] the Activity was “no”, the “Z Score” value (168 h, 3 µM) was −1.899 and the Z score (168 h, 3 µM) was −1.899.
In the case of `Nc1ncnc2c1ncn2[C@@H]1O[C@H](COP(=O)(O)CP(=O)(O)OP(=O)([O-])[O-])[C@H](O)C1O.[Li+].[Li+]` (some centres unmarked), the “Z Score” value [1] is reported as −1.29, the Z score [2] is reported as −1.290 and the Activity [3] is reported as “no”.
`CC(N)(Cc1ccc(O)cc1)C(=O)O` (racemic) [DL-alpha-Methyl-p-tyrosine] was tested, and the “Z Score” value was −3.908, the Z score [2] was −3.908 and the Activity [4] was “yes”.
`NCCc1c[nH]c2ccc(O)cc12` [Serotonin hydrochloride] was tested, and the “Z Score” value (168 h, 3 µM) was −2.197, the Z score (168 h, 3 µM) was −2.197 and the Activity [5] was “no”.
With `COc1cccc(NC(=O)/C=C/c2ccc(Cl)cc2)c1` [SB-366791] the “Z Score” value was −1.419, the Z score [2] was −1.419 and the Activity [6] was “no”.
For `CC(C)[N+](C)(CCOC(=O)C1c2ccccc2Oc2ccccc21)C(C)C` [Propantheline bromide], the “Z Score” value (168 h, 3 µM) was −1.534, the Z score (168 h, 3 µM) was −1.534 and the Activity [6] was “no”.
In the case of `O=C(Nc1cccc(C(=O)Nc2ccc(S(=O)(=O)[O-])c3cc(S(=O)(=O)[O-])cc(S(=O)(=O)[O-])c23)c1)Nc1cccc(C(=O)Nc2ccc(S(=O)(=O)[O-])c3cc(S(=O)(=O)[O-])cc(S(=O)(=O)[O-])c23)c1.[Na+].[Na+].[Na+].[Na+].[Na+].[Na+]` [NF 023], the “Z Score” value is reported as 1.115, the Z score [2] is reported as 1.115 and the Activity [3] is reported as “no”.
In the case of Ceramide, the “Z Score” value is reported as −0.8267, the Z score [7] is reported as −0.827 and the Activity [8] is reported as “no”.
For `CN(C)CCCC1(c2ccc(F)cc2)OCc2cc(C#N)ccc21` (centres unmarked) [Citalopram hydrobromide], the “Z Score” value [1] was −1.858, the Z score [9] was −1.858 and the Activity [5] was “no”.
In the case of `COc1cccc(-c2cc(=O)c3ccccc3o2)c1N` [PD 98,059], the Activity is reported as “no”, the “Z Score” value is reported as 0.9027 and the Z score [2] is reported as 0.903.
`COc1ccccc1N1CCN(CCCNc2cc(=O)n(C)c(=O)n2C)CC1` [Urapidil hydrochloride] was tested, and the “Z Score” value (168 h, 3 µM) was 0.1572, the Z score (168 h, 3 µM) was 0.157 and the Activity [8] was “no”.
With `COc1ccccc1N1CCN(CCN(C(=O)c2ccc(F)cc2)c2ccccn2)CC1.Cl.Cl` [p-MPPF dihydrochloride] the “Z Score” value was −2.16.
With `CC(=O)NCCc1ccc(O)c(O)c1.O` [N-Acetyldopamine monohydrate] the “Z Score” value was 0.4667, the Z score [7] was 0.467 and the Activity [8] was “no”.
With `CCC1(C)CC(=O)NC1=O` (centres unmarked) [Ethosuximide] the “Z Score” value [10] was −0.6124, the Z score [2] was −0.612 and the Activity [5] was “no”.
With `COc1cc2c(cc1OC)[C@@H](c1ccccc1)CN(C)CC2.O=C(O)/C=C\C(=O)O` [R(−)-SCH-12679 maleate] the “Z Score” value was 1.6092, the Z score [7] was 1.609 and the Activity [8] was “no”.
In the case of `COc1cc(Cc2cnc(N)nc2N)cc(OC)c1OC` [Trimethoprim], the “Z Score” value [1] is reported as −1.23, the Z score [7] is reported as −1.230 and the Activity [8] is reported as “no”.
`CCN(CC)CCNC(=O)c1ccc(NC(C)=O)cc1.Cl` [N-Acetylprocainamide hydrochloride] was tested, and the “Z Score” value was −4.557, the Z score [2] was −4.557 and the Activity [4] was “yes”.
For `CC(C)(C)c1onc(OCP(=O)(O)O)c1CC(N)C(=O)O` (centres unmarked) [ATPO], the “Z Score” value was −1.68, the Z score [7] was −1.680 and the Activity [8] was “no”.
For `COc1ccc(NC(=O)c2ccc(-c3ccc(-c4noc(C)n4)cc3C)cc2)cc1N1CCN(C)CC1` [GR 127935 hydrochloride], the “Z Score” value [10] was −1.081, the Z score [2] was −1.081 and the Activity [4] was “no”.
In the case of `CO[C@@]1(NC(=O)CSCC#N)C(=O)N2C(C(=O)O)=C(CSc3nnnn3C)CS[C@@H]21` [Cefmetazole sodium], the “Z Score” value (LOPAC library screen at 3 μM, MTT, secondary neurosphere cultures, screened in singlets) is reported as 2.503, the Z score [9] is reported as 2.503 and the Activity [5] is reported as “no”.
For `S=C([S-])OC1CC2CC1C1CCCC21.[K+]` [D-609 potassium], the “Z Score” value [10] was −0.8964, the Z score [7] was −0.896 and the Activity [8] was “no”.
`O=C(O)/C=C1\CCCc2ccccc2C1O` (centres unmarked) [NCS-382] was tested, and the “Z Score” value was −1.733, the Z score [2] was −1.733 and the Activity [3] was “no”.
`Cn1c(=O)c2[nH]cnc2n(C)c1=O` [Theophylline] was tested, and the Activity was “no”, the “Z Score” value (LOPAC library screen, 3 μM, MTT, neurosphere cultures) was 0.3699 and the Z score [7] was 0.370.
For `O=C(O)[C@@H]1C[C@H](C(=O)O)N1` [cis-Azetidine-2,4-dicarboxylic acid], the “Z Score” value (168 h, 3 µM) was −2.251, the Z score (168 h, 3 µM) was −2.251 and the Activity [8] was “no”.
For `NC(Cc1cc(O)c(O)cc1O)C(=O)O` (racemic) [6-Hydroxy-DL-DOPA], the “Z Score” value was 1.204, the Z score [2] was 1.204 and the Activity [5] was “no”.
With `C#CCN(C)Cc1ccccc1` [Pargyline hydrochloride] the “Z Score” value [10] was −0.2794, the Z score [2] was −0.279 and the Activity [6] was “no”.
